The subject of series [1] is nitric oxide production from LPS-activated macrophages. To be noted: read-out: IC50 against nitric oxide production; cited from earlier work.
For a further series, the system named is RAW 264.7 macrophages. Kind of series: Cell viability of LPS-activated RAW 264.7 macrophages (MTT). The class given is cell-based, murine. The following applies: Fig. 1b, at the concentration leading to effective inhibition of NO production. How it is done: To determine whether the observed nitric oxide inhibition was not due to cytotoxic effects, MTT assay was also performed on the macrophage cells as previously described.

The subject of series [2] is murine macrophage RAW 264.7. The series can be described thus: MTT cytotoxicity assay on RAW 264.7 cells. The class given is cell-based. To be noted: Mus musculus. The protocol: (§1) Cells lines including human monocytic THP-1, murine macrophage RAW 264.7 and the Vero monkey kidney cell lines were obtained from the American Type Culture Collection (Rockville, MD, USA). They were maintained in DMEM supplemented with 10 % fetal calf serum (FCS) and 1 % penicillin/streptomycin/fongizone (PSF) under standard cell culture conditions at 37 °C and 5 % CO2 in a humidified environment.
(§2) The cytotoxicity of compounds was determined by the 3-[4,5-dimethylthiazol-2-yl]-2,5-diphenyltetrazolium (MTT) assay as previously described. The selectivity index (SI) values were calculated by dividing cytotoxicity LC50 values of normal Vero cells by the LC50 of cancer cells in the same units.

Series [3] has as its target T1, acetylcholinesterase (AChE) enzyme from electric eels (Electrophorus electricus, UniProt O42275).
T1 construct: purchased Sigma (Germany) type VI-S lyophilized powder (catalogue number not given)
Kind of series: biochemical. The following applies: for inhibition at 6.25 µg/mL / inhibition at 12.5 µg/mL / inhibition at 25 µg/mL / inhibition at 50 µg/mL: read-out: % AChE inhibition; for IC50: read-out: AChE inhibition IC50 (converted). How it is done: Inhibition of acetylcholinesterase activity was determined using Ellman’s colorimetric method with slight modifications. […] Then, AChE (0.2 U/mL) was added to the wells and the absorbance was determined spectrophotometrically (BioTek Synergy microplate reader) at 405 nm. Distilled water was used as negative control. […] The IC50 values of samples leading to 50 % inhibition were calculated by plotting the percentage of inhibition against the concentrations.

Another series concerns human monocytic THP-1. The series can be described thus: MTT cytotoxicity assay on THP-1 cells. In kind it is cell-based. The protocol: as §1, §2
The nature of series [4]: MTT cytotoxicity assay on Vero cells. The class given is cell-based. To be noted: monkey. The protocol: as §1, §2
In series [5] the test system is nitric oxide production in LPS-stimulated RAW 264.7 macrophages. Kind of series: Nitric oxide production in LPS-activated RAW 264.7 macrophages (Griess reagent). The class given is cell-based, murine. The following applies: 0.5 µg/mL compound, 1 µg/mL LPS, 24 h. The protocol:
Fig. 1 Inhibitory activity of three limonoids isolated from Trichilia welwitschii on nitrix oxide production. The RAW 264.7 macrophages cells were seeded in 96 well-microtitre plates and were activated by incubation in medium containing 1 µg/mL LPS alone (control) or lipopolysaccharide with different concentrations of the samples dissolved in DMSO. Nitric oxide released from macrophages was determined by measuring the nitrite concentration in culture supernatant using the Griess reagent. The concentrations of nitrite were derived from regression analysis using serial dilutions of sodium nitrite as a standard. Percentage inhibition was calculated based on the ability of compounds to inhibit nitric oxide formation by cells compared with the control (cells in media without compounds), which was considered as 0 % inhibition.
The RAW 264.7 macrophages cells were seeded in 96 well-microtitre plates and were activated by incubation in medium containing 1 µg/mL LPS alone (control) or lipopolysaccharide with different concentrations of the samples dissolved in DMSO. […]
Nitric oxide released from macrophages was determined by measuring the nitrite concentration in culture supernatant using the Griess reagent. […] The absorbance of the resultant solutions was determined on a BioTek Synergy microplate reader after 10 min at 550 nm. […]

The mark [6] stands for this setting: RAW264.7, read-out: Cytotoxicity LC50 RAW 264.7.
The mark [7] stands for this setting: THP-1, read-out: Cytotoxicity LC50 THP-1.
Where [8] appears, read: Vero kidney cells, Vero cells, MTT, read-out: Cytotoxicity LC50 Vero.
The mark [9] stands for this setting: RAW264.7, RAW 264.7 cells, MTT, read-out: Cytotoxicity LC50 RAW 264.7.
The mark [10] stands for this setting: human, mouse, THP-1 and RAW 264.7 cells (range over the cell lines), range over the cell lines tested (Vero, THP-1, RAW 264.7), read-out: LC50 values (range over the cell lines).

Converted amounts (≈) assume the structure as drawn. Where two headings read alike, the source gives them in different places.

T1 sequence (O42275 24-633): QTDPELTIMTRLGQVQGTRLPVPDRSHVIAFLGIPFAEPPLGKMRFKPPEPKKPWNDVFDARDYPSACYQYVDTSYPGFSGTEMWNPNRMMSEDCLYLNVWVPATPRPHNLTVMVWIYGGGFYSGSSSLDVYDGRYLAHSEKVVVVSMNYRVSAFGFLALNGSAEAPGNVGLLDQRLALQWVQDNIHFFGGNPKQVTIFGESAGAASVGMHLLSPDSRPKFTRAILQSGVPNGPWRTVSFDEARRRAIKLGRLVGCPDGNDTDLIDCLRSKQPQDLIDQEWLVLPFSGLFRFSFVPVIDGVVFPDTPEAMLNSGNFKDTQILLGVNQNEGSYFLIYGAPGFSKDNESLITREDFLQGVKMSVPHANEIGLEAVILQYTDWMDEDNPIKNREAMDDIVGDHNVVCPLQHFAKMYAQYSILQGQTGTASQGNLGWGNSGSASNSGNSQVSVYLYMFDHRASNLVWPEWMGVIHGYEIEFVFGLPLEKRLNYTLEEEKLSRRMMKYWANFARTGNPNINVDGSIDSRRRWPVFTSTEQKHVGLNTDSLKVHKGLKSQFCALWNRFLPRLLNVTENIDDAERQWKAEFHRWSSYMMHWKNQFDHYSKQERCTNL

As for `CC[C@H](C)C(=O)O[C@H]1[C@@]23O[C@]4(O)[C@@](C)([C@@H](CC(=O)OC)C(C)(C)[C@H](OC(=O)C(C)C)[C@]14O)[C@H]2CC[C@]1(C)[C@H]3CC(=O)O[C@H]1c1ccoc1` [2-hydroxyxylorumphiin F], the IC50 in series [1] was 24.5 µM.

Take `C=C1[C@@]23O[C@@H]2C[C@@H](c2ccoc2)[C@]3(C)[C@@H](OC(=O)C(O)C(C)CC)[C@H](C(=O)O)[C@]1(C)[C@](C)(C1CC(=O)O[C@]1(C)CO)[C@H](CC(=O)OC)OC(C)=O` (stereo partly drawn) [Compound 1, trichilia lactone D5]: the “Cytotoxicity against RAW 264.7 macrophages by MTT assay” value in the series on RAW 264.7 macrophages was “slight toxic effect”. Besides, the CC50 in series [2] (setting [6]) came to 23.6 ± 5.77 µg/mL (≈ 32.8 µM). For the same compound, in series [3], the inhibition at 6.25 µg/mL came out at 28 ± 6.56%, the inhibition at 12.5 µg/mL was 18 ± 8.89%, the inhibition at 25 µg/mL is 71.7 ± 6.03% and the inhibition at 50 µg/mL is 94.3 ± 8.15%. Further, the IC50 in series [3] was 26.6 µM. The CC50 in the series on human monocytic THP-1 (setting [7]) is 81.2 ± 6.38 µg/mL (≈ 113 µM). The CC50 in series [4] (setting [8]) came to 89.2 ± 5 µg/mL (≈ 124 µM).

Regarding `C=C1[C@@]2(O)C(=O)C[C@@H](c3ccoc3)[C@]2(C)[C@@H](OC(=O)C(O)C(C)CC)[C@@H]2O[C@H]3CC(=O)O[C@]4(C)COC(=O)CC4[C@@]3(C)[C@]12C` (stereo partly drawn) [Compound 2, rohituka 3], the CC50 in series [2] (setting [6]) came out at 65.7 ± 3.64 µg/mL (≈ 107 µM). The “Amount of nitric oxide released” value in series [5] turned out to be 2.97 µM. In series [3], the inhibition at 6.25 µg/mL was 14 ± 6%, the inhibition at 12.5 µg/mL amounted to 47.3 ± 2.08%, the inhibition at 25 µg/mL amounted to 67 ± 4.36% and the inhibition at 50 µg/mL is 82.7 ± 7.04%. Also, the IC50 in series [3] was 55.6 µM. Further, the CC50 in the series on human monocytic THP-1 (setting [7]) stood at 81.2 ± 4.04 µg/mL (≈ 132 µM). Besides, the CC50 in series [4] (setting [8]) came to 85.2 ± 6.31 µg/mL (≈ 139 µM).

In the case of `C=C1[C@@]23O[C@@H]2C[C@@H](c2ccoc2)[C@]3(C)[C@@H](OC(=O)C(O)C(C)CC)[C@@H]2O[C@H]3CC(=O)O[C@]4(C)COC(=O)CC4[C@@]3(C)[C@]12C` (stereo partly drawn) [Compound 3, dregeanin DM4], the CC50 in series [2] (setting [6]) amounted to 61.9 ± 4.14 µg/mL (≈ 103 µM). Also, the “Amount of nitric oxide released” value in series [5] is 2.93 µM. Besides, in series [3], the inhibition at 6.25 µg/mL amounted to 30.3 ± 3.51%, the inhibition at 12.5 µg/mL turned out to be 31.7 ± 5.2%, the inhibition at 25 µg/mL was determined as 70.7 ± 3.5% and the inhibition at 50 µg/mL was 87 ± 8.74%. Moreover, the IC50 in series [3] was 76.3 µM. Further, the CC50 in the series with human monocytic THP-1 (setting [7]) came to 84.5 ± 5.81 µg/mL (≈ 141 µM). In addition, the CC50 in series [4] (setting [8]) is 75.8 ± 1.85 µg/mL (≈ 127 µM).

Regarding `COc1cccc2c1C(=O)c1c(O)c3c(c(O)c1C2=O)C[C@@](O)(C(=O)CO)C[C@@H]3O[C@H]1C[C@H](N)[C@H](O)[C@H](C)O1` [Doxorubicin], the results for the CC50 in series [2] (setting [9]), in series [4] (setting [8]) and in series [4] (setting [10]) were 1.06 ± 0.65 µg/mL (≈ 1.95 µM), 9.35 ± 0.66 µg/mL (≈ 17.2 µM) and 1.06 to 9.35 µg/mL (≈ 1.95 to 17.2 µM), respectively.

Turning to `COc1ccc(C[C@H](N)C(=O)N[C@H]2[C@@H](O)[C@H](n3cnc4c(N(C)C)ncnc43)O[C@@H]2CO)cc1` [Puromycin, reference compound], the CC50 in series [2] (setting [9]) was 1.15 ± 0.17 µg/mL (≈ 2.44 µM); in the series on human monocytic THP-1 (THP-1 cells, MTT, read-out: Cytotoxicity LC50 THP-1), 0.4 ± 0.02 µg/mL (≈ 0.848 µM); in series [4] (setting [8]) it was 5.32 ± 0.9 µg/mL (≈ 11.3 µM); in series [4] (setting [10]), 1.15 to 5.32 µg/mL (≈ 2.44 to 11.3 µM).

Consider `CC[C@H](C)C(=O)O[C@H]1C(C)(C)[C@H](CC(=O)OC)[C@@]2(C)[C@H]3CC[C@]4(C)C(=CC(=O)O[C@H]4c4ccoc4)[C@]34O[C@@]2(O)[C@@]1(O)[C@H]4OC(=O)[C@@H](C)CC` [xylorumphiin I], for which the IC50 in series [1] is 31.3 µM.
